Key:
[1] = system: MCF-7 breast cancer cell line; assay: Tetrazolium dye proliferation (WST-1) assay in MCF-7 cells; assay type: cell-based; settings: 5 days incubation
Experimental: (§1) Determination of the ability of compound of formula (I) and combinations between compound of formula (I) and certain therapeutic compounds described herein to inhibit the proliferation of target cells was assayed in vitro against breast tumour cells.
(§2) MCF-7 cells were purchased from ATCC. PNT1A cells were purchased from ECACC. The cells were grown in a subconfluent condition to maintain a logarithmic growth phase. The cells were dislodged for passage using trypsin-EDTA.
(§3) The proliferation of the cell lines was evaluated by using the commercial WST-1 proliferation measurement reagent. Cells from exponentially growing cultures were plated on the 96 well plates at the appropriate seeding density in the optimal medium to give logarithmic growth over the course of the assay. […] Following incubation the absorbance at a wavelength of 450 nm was measured from each well using a multilabel counter. The absorbance at wavelength 450 nm correlates linearly to number of viable cells in the well.
(§4) The means and standard deviations for parallel samples were calculated and plotted as a graph.
(§5) The antiproliferative activity of compound of formula (I) was evaluated in vitro using tetrazolium dye proliferation assay in different cell lines: MCF-7 (breast cancer cell line, derived from pleura fluid) and PNT1A (normal prostate cell line, SV40 immortalized).

[2] = system: PNT1A immortalized normal prostate cell line; assay: Tetrazolium dye proliferation (WST-1) assay in PNT1A cells; assay type: cell-based; settings: Homo sapiens, 120 h, compared with 0.1 % DMSO vehicle control group, 5 days incubation, read-out: proliferation inhibitory effect
Experimental: as §1, §2, §3, §4, §5

prostate cancer cells = assay: Effect on other cancer cells: prostate; assay type: cell-based
pancreatic cancer cells = assay: Effect on other cancer cells: pancreatic; assay type: cell-based
[3] = system: L1210 leukemia cultured cells; settings: prior art (Kato et al 1986; Takamura et al 1989); cited from earlier work
Ehrlich ascites tumour = settings: prior art (Kato et al 1986; Takamura et al 1989); cited from earlier work
[4] = system: malignant trophoblastic cell lines; settings: prior art (Trewyn et al. 1979); cited from earlier work
HL-60 cells = settings: prior art (Meisel et al. 1998; Mlejnek et al. 2005); cited from earlier work

For `CN(C)c1ncnc2c1ncn2[C@@H]1O[C@H](CO)[C@@H](O)[C@H]1O` [Compound I, N6,N6-Dimethyladenosine], the inhibition at 1 µM ([1]; Homo sapiens, MCF7, 120 h, compared with 0.1 % DMSO vehicle control group, 1 microM, read-out: proliferation inhibitory effect) was 91.6 ± 2.1%, the “proliferation inhibitory effect compared with Gemcitabine” value ([1]; relative to Gemcitabine (= 0)) was 62.6±9.4% and the inhibition at 1 µM [2] was 17.4 ± 5.3%. For the same compound, the “effect on prostate cancer cells” value (prostate cancer cells) was “no effect was detected”, the “effect on pancreatic cancer cells” value (pancreatic cancer cells) was “no effect was detected” and the “antitumour activity in L1210 leukemia cultured cells” value [3] was “inactive”. The “antitumour activity against Ehrlich ascites tumour” value (Ehrlich ascites tumour) was “inactive”, the “cytotoxicity to malignant trophoblastic cell lines” value [4] was “cytotoxic” and the “apoptosis induction on HL-60 cells” value (HL-60 cells) was “apoptotic inductor”.
